Converted amounts (≈) assume the structure as drawn. Blank lines part the entries; values can stand above or below the compound they belong to.
Assays:
[1] = molecular target: T1, Neuropeptide Y receptor type 5 (Homo sapiens, UniProt Q15761); experiment: Displacement of [125I]PYY from human recombinant NPYY5 receptor expressed in mouse LMtk cells; format: cell-based
T1 sequence (Q15761 whole entry): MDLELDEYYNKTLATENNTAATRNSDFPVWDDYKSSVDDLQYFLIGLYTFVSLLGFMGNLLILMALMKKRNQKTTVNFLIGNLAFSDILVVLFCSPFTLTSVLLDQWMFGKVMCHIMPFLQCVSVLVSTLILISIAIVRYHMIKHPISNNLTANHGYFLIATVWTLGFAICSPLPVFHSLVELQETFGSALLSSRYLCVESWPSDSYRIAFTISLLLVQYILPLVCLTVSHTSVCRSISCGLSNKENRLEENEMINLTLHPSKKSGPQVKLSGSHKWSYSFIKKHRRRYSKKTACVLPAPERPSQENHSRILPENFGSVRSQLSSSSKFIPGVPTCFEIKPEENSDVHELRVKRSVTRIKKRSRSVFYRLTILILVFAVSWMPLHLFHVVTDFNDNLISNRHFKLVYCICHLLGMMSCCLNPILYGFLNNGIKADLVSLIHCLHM

Brain = experiment: Drug level in rat brain at 2.7 mg/kg, iv after 10 mins; format: ADME, organism-based; set-up: dose 2.7 mg/kg, route intravenous; conditions: in vivo
[2] = Ratio of drug level in brain to plasma at 2.7 mg/kg, iv after 10 mins; format: ADME, organism-based; set-up: dose 2.7 mg/kg, route intravenous; conditions: rat, read-out: BPR
[3] = Plasma concentration in rat plasma at 2.7 mg/kg, iv after 10 mins; format: ADME, organism-based; set-up: dose 2.7 mg/kg, route intravenous; conditions: read-out: Drug uptake
[4] = Solubility in 0.2 M phosphate buffer at pH 6.8; format: physicochemical
[5] = molecular target: Neuropeptide Y receptor type 4 (Homo sapiens, UniProt P50391); experiment: Inhibition of NPYY4 receptor
[6] = Selectivity for human NPYY5 receptor over NPYY2 receptor
[7] = Plasma concentration in rat plasma at 10 mg/kg, po after 2 hrs; format: ADME, organism-based; set-up: dose 10 mg/kg, route oral; conditions: read-out: Drug uptake
[8] = molecular target: T2, Neuropeptide Y receptor type 1 (Homo sapiens, UniProt P25929); experiment: Inhibition of NPYY1 receptor
T2 sequence (P25929 whole entry): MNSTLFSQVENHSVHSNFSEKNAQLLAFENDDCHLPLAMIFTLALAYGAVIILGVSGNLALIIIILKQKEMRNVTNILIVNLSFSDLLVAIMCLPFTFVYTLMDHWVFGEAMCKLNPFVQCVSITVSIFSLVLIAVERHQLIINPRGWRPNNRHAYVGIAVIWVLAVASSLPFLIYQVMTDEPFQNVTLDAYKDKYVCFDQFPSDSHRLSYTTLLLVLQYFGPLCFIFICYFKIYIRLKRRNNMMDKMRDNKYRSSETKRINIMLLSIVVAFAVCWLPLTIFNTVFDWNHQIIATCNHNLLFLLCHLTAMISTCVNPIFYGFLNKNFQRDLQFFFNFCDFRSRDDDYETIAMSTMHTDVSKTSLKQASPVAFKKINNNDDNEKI

[9] = molecular target: T1, Neuropeptide Y receptor type 5; experiment: Antagonist activity at human recombinant NPYY5 receptor expressed in mouse LMtk cells assessed as inhibition of NPY-induced calcium increase; format: functional, cell-based
[10] = Selectivity for human NPYY5 receptor over NPYY4 receptor
[11] = molecular target: T3, Neuropeptide Y receptor type 2 (Homo sapiens, UniProt P49146); experiment: Inhibition of NPYY2 receptor
T3 sequence (P49146 whole entry): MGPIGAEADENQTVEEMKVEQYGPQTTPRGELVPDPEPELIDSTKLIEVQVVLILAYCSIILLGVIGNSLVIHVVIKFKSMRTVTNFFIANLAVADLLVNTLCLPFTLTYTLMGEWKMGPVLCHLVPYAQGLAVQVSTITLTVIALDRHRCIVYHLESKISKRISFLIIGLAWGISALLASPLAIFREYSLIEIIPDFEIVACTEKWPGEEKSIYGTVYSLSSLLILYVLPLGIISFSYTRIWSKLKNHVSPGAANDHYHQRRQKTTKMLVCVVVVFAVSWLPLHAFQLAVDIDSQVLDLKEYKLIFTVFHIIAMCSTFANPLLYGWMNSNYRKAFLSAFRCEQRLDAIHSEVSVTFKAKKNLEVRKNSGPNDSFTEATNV

[12] = Selectivity for human NPYY5 receptor over NPYY1 receptor
[13] = Ratio of drug level in brain to plasma in rat at 10 mg/kg, po after 2 hrs; format: ADME, organism-based; set-up: dose 10 mg/kg, route oral
[14] = Plasma concentration in rat plasma at 10 mg/kg, po after 4 hrs; format: ADME, organism-based; set-up: dose 10 mg/kg, route oral; conditions: read-out: Drug uptake

Chain of Neuropeptide Y receptor type 4 (P50391 whole entry): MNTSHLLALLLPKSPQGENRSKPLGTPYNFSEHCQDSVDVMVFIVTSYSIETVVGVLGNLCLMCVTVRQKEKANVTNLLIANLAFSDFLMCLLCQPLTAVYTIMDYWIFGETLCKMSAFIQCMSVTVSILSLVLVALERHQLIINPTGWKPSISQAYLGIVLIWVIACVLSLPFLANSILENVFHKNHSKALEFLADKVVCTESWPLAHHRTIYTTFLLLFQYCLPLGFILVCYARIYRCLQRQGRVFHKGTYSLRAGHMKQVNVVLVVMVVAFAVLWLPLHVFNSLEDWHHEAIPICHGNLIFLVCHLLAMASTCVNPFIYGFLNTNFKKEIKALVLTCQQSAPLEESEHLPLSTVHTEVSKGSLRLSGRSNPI

IC50 [1]: 39 nM
SMILES: O=C1O[C@]2(CC[C@H](c3nc4cc(Cl)ccc4[nH]3)CC2)c2ccccc21

IC50 [1]: 1000 nM
SMILES: COC(=O)c1cc2[nH]c([C@H]3CC[C@]4(CC3)OC(=O)c3ccccc34)nc2cc1Cl

IC50 [1]: 4.5 nM
SMILES: COC(=O)c1ccc2[nH]c([C@H]3CC[C@@]4(CC3)OC(=O)c3ccccc34)nc2c1Cl

IC50 [1]: 7.7 nM | Drug uptake (Brain): 1.7 nmol/g | Kp at 10 min [2]: 0.55 | concentration at 10 min [3]: 3100 nM | solubility [4]: 0.6 µg/mL (≈ 1.59 µM)
SMILES: COC(=O)c1ccc2[nH]c([C@H]3CC[C@@]4(CC3)OC(=O)c3ccccc34)nc2c1

IC50 [1]: 45 nM
SMILES: O=C1O[C@]2(CC[C@H](c3nc4cc(Br)ccc4[nH]3)CC2)c2ccccc21

IC50 [1]: 91 nM
SMILES: O=C1O[C@]2(CC[C@H](c3nc4ccccc4[nH]3)CC2)c2ccccc21

IC50 [1]: 20 nM
SMILES: N#Cc1ccc2[nH]c([C@H]3CC[C@@]4(CC3)OC(=O)c3ccccc34)nc2c1

IC50 [1]: 47 nM
SMILES: O=C1O[C@]2(CC[C@H](c3nc4cc(C(F)(F)F)ccc4[nH]3)CC2)c2ccccc21

IC50 [5]: > 10000 nM | IC50 [1]: 5.1 nM | Selectivity ratio [6]: 1000 | concentration at 2 h [7]: 400 nM | IC50 [8]: > 10000 nM | IC50 [9]: 7 nM | Selectivity ratio [10]: 1000 | IC50 [11]: > 10000 nM | Selectivity ratio [12]: 1000
SMILES: Cc1nc(-c2ccc3[nH]c([C@H]4CC[C@@]5(CC4)OC(=O)c4ccccc45)nc3c2)no1

IC50 [1]: 2.2 nM
SMILES: COC(=O)c1cc2[nH]c([C@H]3CC[C@@]4(CC3)OC(=O)c3ccccc34)nc2cc1Cl

IC50 [1]: 2.6 nM | solubility [4]: < 0.01 µg/mL
SMILES: O=C1O[C@]2(CC[C@H](c3nc4cc(Cl)c(C(F)(F)F)cc4[nH]3)CC2)c2ccccc21

IC50 [1]: 2.1 nM
SMILES: O=C1O[C@]2(CC[C@H](c3nc4cc(-c5noc(C(F)(F)F)n5)ccc4[nH]3)CC2)c2ccccc21

IC50 [1]: 1000 nM
SMILES: Cc1nnc(-c2ccc3[nH]c([C@H]4CC[C@]5(CC4)OC(=O)c4ccccc45)nc3c2)o1

IC50 [1]: 2.3 nM
SMILES: O=C1O[C@]2(CC[C@H](c3nc4ccc(-c5ccccc5)cc4[nH]3)CC2)c2ccccc21

IC50 [1]: 2.4 nM
SMILES: O=C(c1ccccc1)c1ccc2[nH]c([C@H]3CC[C@@]4(CC3)OC(=O)c3ccccc34)nc2c1

IC50 [5]: > 10000 nM | IC50 [1]: 3.3 nM | Selectivity ratio [6]: 1000 | concentration at 2 h [7]: 1400 nM | IC50 [8]: > 10000 nM | IC50 [9]: 5.5 nM | Selectivity ratio [10]: 1000 | Kp at 2 h [13]: 0.05 | IC50 [11]: > 10000 nM | concentration at 4 h [14]: 850 nM | solubility [4]: 0.94 µg/mL (≈ 2.35 µM) | Selectivity ratio [12]: 1000
SMILES: Cc1nnc(-c2ccc3[nH]c([C@H]4CC[C@@]5(CC4)OC(=O)c4ccccc45)nc3c2)o1

IC50 [1]: 15 nM
SMILES: O=C1O[C@]2(CC[C@H](c3nc4cc(-c5nnco5)ccc4[nH]3)CC2)c2ccccc21

IC50 [1]: 8 nM
SMILES: O=C1O[C@]2(CC[C@H](c3nc4cc(Cl)c(Cl)cc4[nH]3)CC2)c2ccccc21

IC50 [1]: > 1000 nM
SMILES: Cn1c2cc(Cl)c(Cl)cc2nc1[C@H]1CC[C@@]2(CC1)OC(=O)c1ccccc12

IC50 [1]: 2.4 nM
SMILES: O=C1O[C@]2(CC[C@H](c3nc4cc(-c5ccccn5)ccc4[nH]3)CC2)c2ccccc21

IC50 [1]: 1.7 nM
SMILES: O=C1O[C@]2(CC[C@H](c3nc4ccc(-c5ccc(F)cc5)cc4[nH]3)CC2)c2ccccc21

IC50 [5]: > 10000 nM | IC50 [1]: 5.9 nM | Selectivity ratio [6]: 1000 | concentration at 2 h [7]: 3200 nM | IC50 [8]: > 10000 nM | IC50 [9]: 7.2 nM | Selectivity ratio [10]: 1000 | Kp at 2 h [13]: 0.12 | IC50 [11]: > 10000 nM | concentration at 4 h [14]: 990 nM | solubility [4]: 5.9 µg/mL (≈ 14.7 µM) | Selectivity ratio [12]: 1000
SMILES: Cn1nnc(-c2ccc3[nH]c([C@H]4CC[C@@]5(CC4)OC(=O)c4ccccc45)nc3c2)n1

IC50 [1]: 2.2 nM
SMILES: O=C1O[C@]2(CC[C@H](c3nc4cc(Cl)c(-c5ccccc5)cc4[nH]3)CC2)c2ccccc21

IC50 [1]: 3.1 nM
SMILES: O=C1O[C@]2(CC[C@H](c3nc4cc(-c5cccnc5)ccc4[nH]3)CC2)c2ccccc21

— ChEMBL document CHEMBL1144170, “Syntheses and structure-activity relationships of novel, potent, and selective trans-2-[3-oxospiro[isobenzofuran-1(3H),1'-cyclohexan]-4'-yl]benzimidazole NPY Y5 receptor antagonists” (Bioorg Med Chem Lett, 2008)
